Measured values from patent US20250281480A1, “PHARMACEUTICAL DRY POWDER INHALATION FORMULATION” (Bayer Aktiengesellschaft, priority 2021, published 2025).

How the values were obtained:
[1] = tested on: anesthetized thromboxane A2 challenged PAH-minipig; test: Haemodynamics in the anesthetized thromboxane challenged minipig (PAH minipig), inhaled nebulized solution: lung selectivity and duration of action; format: in vivo, Göttingen Minipigs
Procedure: Healthy Göttingen Minipigs® Ellegaard (Ellegaard, Denmark) of both sexes and having a weight of 2-6 kg were used. The animals were sedated by i.m. administration of about 25 mg/kg ketamine and about 10 mg/kg azaperone. Anaesthesia was initiated by i.v. administration of about 2 mg/kg ketamine and about 0.3 mg/kg midazolam. Maintenance of anaesthesia was by i.v. administration of about 7.5-30 mg/kg/h ketamine and about 1-4 mg/kg/h midazolam (rate of infusion 1-4 ml/kg/h) and about 150 μg/kg/h pancuronium bromide (for example Pancuronium-Actavis). After intubation, the animals were ventilated by the ventilator at a constant respiratory volume (10-12 ml/kg, 35 breaths/min; Avea®, Viasys Healthcare, USA, or Engström Carestation, GE Healthcare, Freiburg, Germany) such that an end-tidal CO2 concentration of about 5% was achieved. Ventilation was performed with room air, enriched with about 40% oxygen (normoxia). For the measurement of the haemodynamic parameters such as pulmonary arterial pressure (PAP), blood pressure (BP) and heart rate (HR), catheters were inserted into the carotid artery to measure the blood pressure, and a Swan-Ganz® catheter was introduced in a flow-directed manner via the jugular vein into the pulmonary artery. The haemodynamic signals were recorded and evaluated by means of pressure transducers (Combitransducer, B. Braun, Melsungen, Germany)/amplifiers and Ponemah® as data acquisition software.
After the instruments have been placed into the animals, continuous infusion of a thromboxane A2 analog was initiated to increase the pulmonary arterial pressure. About 0.3-0.75 μg/kg/min of 9,11-didesoxy-9α,11α-epoxymethanoprostaglandine F2α (U-44069; Sigma, cat. no. D0400, or Cayman Chemical Company, cat. no. 16440), dissolved in physiological saline, were infused to achieve an increase of the mean pulmonary arterial pressure to values of over 25 mmHg. 30 minutes after the start of the infusion, a plateau was reached, and the experiment was started.
The test substances were administered as i.v. infusion or by inhalation. For the preparation of the solution for inhalation, the following procedure was adopted: For an animal having a weight of 4 kg, to prepare the stock solution (300 μg/kg), 1.2 mg of the test compound were weighed out and dissolved in a total volume of 3 ml (1% DMSO, 99% 0.2% strength citric acid solution, 1 n aqueous sodium hydroxide solution to adjust the pH to 8). The solution was then diluted to the concentration employed using 0.2% strength citric acid which had been adjusted to pH 8 beforehand with aqueous sodium hydroxide solution. In each test, 3 ml of the solution of test compound per 4 kg animal were nebulized in the inhalation arm of the respiratory circuit using the Aeroneb® Pro nebulizer system. The mean nebulization time was about 7 min from the start of the nebulization.
With respect to a prediction of the duration of action for human studies comparative example 11 was compared in the PAH minipig model after inhaled application to Ventavis® (=Iloprost, 10 μg/kg nominal dose), which we used as a clinical reference. […] Therefore, the duration of action is more than 6 times longer compared to Ventavis in this preclinical animal model.

[2] = tested on: chronic ovalbumin asthma mice model; test: Chronic ovalbumin asthma mice model; details: mouse, in vivo
[3] = Phase I, single inhaled, inhaled + charcoal, oral and intravenous doses in healthy male subjects: plasma concentrations, lung deposition; format: in vivo, human
Procedure: Healthy white male subjects, aged 18 to 45 years with a body mass index (BMI) above/equal 18.5 and below/equal 29.9 kg/m^2 were treated in a clinical phase I study with a single inhaled dose of 1000 μg (nominal dose), a single inhaled dose of 1000 μg (nominal dose)+charcoal block, a single oral dose of 1000 μg and a single infusion over 2 h of 100 μg of example 4. As the bioavailability of an intravenous application is generally 100% per definition and therefore higher than in case of an oral or […], the intravenous dose was carefully selected to be lower than the oral and inhaled dose to avoid higher plasma concentration resulting from a high IV dose and potential side effect, e.g. reduction in blood pressure or syncope. Therefore, 100 μg was selected for the IV dose in this investigation. Seven days washout period between treatments was applied. The subjects swallowed a solution for oral administration (20 ml comprising 1000 μg see under C-2, table 49a). The subjects received a solution as a single infusion over 2 hours (2 ml comprising 100 μg see under C-2 table 49a). The subjects inhaled the drug powder from capsules (see under C-1, tables 17 and 20) inserted into a handheld inhalation device by one deep inhalative breath. After inhalation of the dry powder formulation of this drug, some parts of the nominal dose remain in the capsule and the device, the dose which reaches the body at the mouthpiece is called the emitted dose. The emitted dose can be calculated/determined as followed: nominal dose−(remains in the capsule+remains in the device). After inhalation of the dry powder, one part of the emitted dose enters the gastrointestinal tract (GT and is called the oral part of the emitted dose, the other part of the emitted dose which reaches the lung through the respiratory airways is called the lung dose and represents the lung deposited dose. As the lung is the target organ of the effect, the lung deposited dose must be quantified. Lung deposition can be indirectly estimated, by determining the part of the nominal dose which reaches the GIT and the remains in the capsule and the device. To investigate and determine lung deposition, the following investigations were done (see also FIG. 59): • 1—Inhaled application of a single dose of 1000 μg of the dry powder. • 2—Inhaled application of a single dose of 1000 μg of the dry powder in combination with oral administration of charcoal block. The charcoal block capped the oral absorption of GIT part of the dose, as example 4 completely adsorbed to charcoal block. This implies that the concentrations of example 4 measured reach the systemic circulation via the lung. • 3—Administration of a single oral dose of 1000 μg example 4 to determine the oral absorption. • 4—Administration of a 2 h infusion of example 4 to investigate the elimination.

[4] = Storage stability of pseudopolymorphic forms (XRPD); format: physicochemical; details: same storage conditions as table 15
[5] = Micronization of monohydrate II and monohydrate I (spiral jet mill): solid form after micronization; format: physicochemical; details: example 8e: 100 mm spiral jet mill
Text: Generally no amorphization even partial nor form conversion should happen during the necessary micronization step.
The corresponding batches (examples 8a-8d) were micronized using a 50 mm spiral jet mill and pressurized nitrogen with the following parameters (see table 16b).
The corresponding batches were micronized using a 100 mm spiral jet mill and pressurized nitrogen with the following parameters (see table 16c).

O=C(O)c1ccc(CCN(CCc2ccccc2OCc2ccc(-c3ccc(C(F)(F)F)cc3)cc2Cl)[C@H]2CCCc3nc(C(=O)O)ccc32)cc1 [Comparative example 11, (5S)-5-{[2-(4-carboxyphenyl)ethyl][2-(2-{[3-chloro-4′-(trifluoromethyl)[biphenyl]-4-yl]methoxy}phenyl)ethyl]amino}-5,6,7,8-tetrahydroquinoline-2-carboxylic Acid]
minimal effective nominal dose ([1]; 5% reduction in PAP, nebulized): 3 µg/kg
dose dependent efficacy (PAP) during observation interval ([1]; all doses (10, 30 and 100 μg/kg nominal dose), inhaled): 240 min
selective PAP effect, duration of maximal effect ([1]; inhaled application, whole observation interval): 240 min
duration of action ([1]; minipig model, inhaled): sufficient duration of action
time of maximal effect on PAP after inhaled application ([1]; nebulized solution): about 90 min
effect on airway hyper-responsiveness and inflammation [2]: inhibitory effect on airway hyper-responsiveness and inflammation

O=C(O)c1ccc(CCN(CCc2ccccc2OCc2ccc(-c3ccc(C(F)(F)F)cc3)cc2Cl)[C@H]2CCCc3nc(C(=O)O)ccc32)cc1 [Example 4, (5S)—{[2-(4-Carboxyphenyl)ethyl][2-(2-{[3-chloro-4′-(trifluoromethyl)biphenyl-4-yl]methoxy}phenyl)-ethyl]amino}-5,6,7,8-tetrahydroquinoline-2-carboxylic Acid as Monohydrate I]
absolute bioavailability ([3]; dry powder inhaled with charcoal): 16.3%
absolute bioavailability ([3]; dry powder inhaled without charcoal): 18.8%
elimination half-life ([3]; inhaled 1000 μg with charcoal): 16.1 h
elimination half-life ([3]; inhaled 1000 μg without charcoal): 15.1 h
elimination half-life ([3]; intravenous, 100 μg infusion over 2 h): 0.26 h
elimination half-life ([3]; oral, 1000 μg): 4.43 h
storage stability [4]: stable
stability under micronization conditions [5]: stable
